pIC50: −log10 of the molar value.
System: 953936-095-R-J2-PDC spheroids with HUVEC/MSC, viability
Assay: Anticancer human tumor 953936-095-R-J2-PDC patient-derived cervical squamous cell carcinoma cell line growth inhibition [PI3K]
Details: for pIC50: curve of first compound; for viability, T/C: stronger effect = lower value
Procedure, shortened: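 Spheroid viability read-out. Co-cultures contained the tumor line plus HUVEC and human MSCs. Each agent was paired with a PI3K inhibitor (inavolisib, alpelisib, duvelisib, copanlisib) across half-log dilutions starting at clinical Cmax, or at 10 microM when Cmax was unknown.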

[1] = second compound 0.0316 µM, first compound 0.0316 µM
[2] = second compound 0.0316 µM, first compound 0.1 µM
[3] = second compound 0.0316 µM, first compound 0.316 µM
[4] = second compound 0.0316 µM, first compound 1 µM
[5] = second compound 0.0316 µM, first compound 3.16 µM
[6] = second compound 0.0316 µM, first compound 10 µM
[7] = second compound 0.1 µM, first compound 0.0316 µM
[8] = second compound 0.1 µM, first compound 0.1 µM
[9] = second compound 0.1 µM, first compound 0.316 µM
[10] = second compound 0.1 µM, first compound 1 µM
[11] = second compound 0.1 µM, first compound 3.16 µM
[12] = second compound 0.1 µM, first compound 10 µM
[13] = second compound 0.316 µM, first compound 0.0316 µM
[14] = second compound 0.316 µM, first compound 0.1 µM
[15] = second compound 0.316 µM, first compound 0.316 µM
[16] = second compound 0.316 µM, first compound 1 µM
[17] = second compound 0.316 µM, first compound 3.16 µM
[18] = second compound 0.316 µM, first compound 10 µM
[19] = second compound 1 µM, first compound 0.0316 µM
[20] = second compound 1 µM, first compound 0.1 µM
[21] = second compound 1 µM, first compound 0.316 µM
[22] = second compound 1 µM, first compound 1 µM
[23] = second compound 1 µM, first compound 3.16 µM
[24] = second compound 1 µM, first compound 10 µM
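Further: spheroids exposed to compounds for seven days before read-out.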

Question: C=CC(=O)N1CCN(c2nc(=O)n(-c3c(C)ccnc3C(C)C)c3nc(-c4c(O)cccc4F)c(F)cc23)C(C)C1 (centres undefined) + CC(Nc1ccc2c(c1)OCCn1cc(N3C(=O)OCC3C(F)F)nc1-2)C(N)=O was tested. Which pIC50 (second compound 0.00316 µM) did it give?
Answer: Its pIC50 is less than 5.00.

Question: And the pIC50 (second compound 0.01 µM)?
Answer: The pIC50 was less than 5.00.

Question: What about the pIC50 (second compound 0.0316 µM) of the same compound?
Answer: Its pIC50 is less than 5.00.

Question: And the pIC50 (second compound 0.1 µM)?
Answer: The pIC50 was less than 5.00.

Question: And the pIC50 (second compound 0.316 µM)?
Answer: Its pIC50 is greater than 7.50.

Question: And the pIC50 (second compound 1 µM)?
Answer: The pIC50 was greater than 7.50.

Question: And the viability, T/C (second compound 0.00316 µM, first compound 0.0316 µM)?
Answer: Its viability, T/C is 94.8%.

Question: And the viability, T/C (second compound 0.00316 µM, first compound 0.1 µM)?
Answer: Its viability, T/C is 94.5%.

Question: What about the viability, T/C (second compound 0.00316 µM, first compound 0.316 µM) of the same compound?
Answer: The viability, T/C was 99.9%.

Question: And the viability, T/C (second compound 0.00316 µM, first compound 1 µM)?
Answer: The viability, T/C was 110%.

Question: And the viability, T/C (second compound 0.00316 µM, first compound 3.16 µM)?
Answer: Its viability, T/C is 114%.

Question: And the viability, T/C (second compound 0.00316 µM, first compound 10 µM)?
Answer: The viability, T/C was 112%.

Question: What about the viability, T/C (second compound 0.01 µM, first compound 0.0316 µM) of the same compound?
Answer: Its viability, T/C is 86.8%.

Question: And the viability, T/C (second compound 0.01 µM, first compound 0.1 µM)?
Answer: Its viability, T/C is 91.3%.

Question: And the viability, T/C (second compound 0.01 µM, first compound 0.316 µM)?
Answer: The viability, T/C was 101%.

Question: And the viability, T/C (second compound 0.01 µM, first compound 1 µM)?
Answer: The viability, T/C was 101%.

Question: And the viability, T/C (second compound 0.01 µM, first compound 3.16 µM)?
Answer: The viability, T/C was 116%.

Question: And the viability, T/C (second compound 0.01 µM, first compound 10 µM)?
Answer: Its viability, T/C is 108%.

Question: And the viability, T/C [1]?
Answer: The viability, T/C was 80%.

Question: What about the viability, T/C [2] of the same compound?
Answer: The viability, T/C was 82.5%.

Question: And the viability, T/C [3]?
Answer: The viability, T/C was 89.5%.

Question: And the viability, T/C [4]?
Answer: The viability, T/C was 98.6%.

Question: And the viability, T/C [5]?
Answer: Its viability, T/C is 90.4%.

Question: What about the viability, T/C [6] of the same compound?
Answer: The viability, T/C was 94.1%.

Question: And the viability, T/C [7]?
Answer: The viability, T/C was 60.2%.

Question: And the viability, T/C [8]?
Answer: Its viability, T/C is 56.2%.

Question: And the viability, T/C [9]?
Answer: The viability, T/C was 61.4%.

Question: And the viability, T/C [10]?
Answer: The viability, T/C was 72.3%.

Question: What about the viability, T/C [11] of the same compound?
Answer: The viability, T/C was 77.7%.

Question: What about the viability, T/C [12] of the same compound?
Answer: Its viability, T/C is 69.2%.

Question: And the viability, T/C [13]?
Answer: The viability, T/C was 37.1%.

Question: What about the viability, T/C [14] of the same compound?
Answer: Its viability, T/C is 35.3%.

Question: And the viability, T/C [15]?
Answer: Its viability, T/C is 34.9%.

Question: And the viability, T/C [16]?
Answer: Its viability, T/C is 42%.

Question: What about the viability, T/C [17] of the same compound?
Answer: Its viability, T/C is 39.6%.

Question: What about the viability, T/C [18] of the same compound?
Answer: The viability, T/C was 35.9%.

Question: What about the viability, T/C [19] of the same compound?
Answer: Its viability, T/C is 21.4%.

Question: What about the viability, T/C [20] of the same compound?
Answer: The viability, T/C was 25.3%.

Question: And the viability, T/C [21]?
Answer: Its viability, T/C is 23.2%.

Question: What about the viability, T/C [22] of the same compound?
Answer: The viability, T/C was 24.5%.

Question: What about the viability, T/C [23] of the same compound?
Answer: The viability, T/C was 22.5%.

Question: What about the viability, T/C [24] of the same compound?
Answer: Its viability, T/C is 19.6%.

Question: Which results are given for C[C@@H](NC(=O)c1ncnc(N)c1Cl)c1ncc(C(=O)Nc2cc(C(F)(F)F)c(Cl)cn2)s1 + CC(Nc1ncnc2nc[nH]c12)c1cc2cccc(Cl)c2c(=O)n1-c1ccccc1?
Answer: pIC50 (second compound 0.0316 µM): < 5.00; pIC50 (second compound 0.1 µM): < 5.00; pIC50 (second compound 0.316 µM): < 5.00; pIC50 (second compound 1 µM): < 5.00; pIC50 (second compound 3.16 µM): < 5.00; pIC50 (second compound 10 µM): < 5.00; viability, T/C [1]: 103%; viability, T/C [2]: 98.3%; viability, T/C [3]: 101%; viability, T/C [4]: 108%; viability, T/C [5]: 101%; viability, T/C [6]: 97.2%; viability, T/C [7]: 113%; viability, T/C [8]: 106%; viability, T/C [9]: 106%; viability, T/C [10]: 101%; viability, T/C [11]: 117%; viability, T/C [12]: 96.4%; viability, T/C [13]: 107%; viability, T/C [14]: 101%; viability, T/C [15]: 94.3%; viability, T/C [16]: 95.4%; viability, T/C [17]: 103%; viability, T/C [18]: 94.6%; viability, T/C [19]: 96.5%; viability, T/C [20]: 91.3%; viability, T/C [21]: 91.8%; viability, T/C [22]: 102%; viability, T/C [23]: 94.8%; viability, T/C [24]: 86.2%; viability, T/C (second compound 3.16 µM, first compound 0.0316 µM): 87.2%; viability, T/C (second compound 3.16 µM, first compound 0.1 µM): 79.5%; viability, T/C (second compound 3.16 µM, first compound 0.316 µM): 86.1%; viability, T/C (second compound 3.16 µM, first compound 1 µM): 94%; viability, T/C (second compound 3.16 µM, first compound 3.16 µM): 80.1%; viability, T/C (second compound 3.16 µM, first compound 10 µM): 79.8%; viability, T/C (second compound 10 µM, first compound 0.0316 µM): 60.9%; viability, T/C (second compound 10 µM, first compound 0.1 µM): 76.9%; viability, T/C (second compound 10 µM, first compound 0.316 µM): 63.1%; viability, T/C (second compound 10 µM, first compound 1 µM): 80.7%; viability, T/C (second compound 10 µM, first compound 3.16 µM): 61.7%; viability, T/C (second compound 10 µM, first compound 10 µM): 55.1%

Source: PubChem BioAssay AID1963971 (Molecular Pharmacology Branch, DTP, NCI, 2024)
